Assay results taken from patent US20190070128A1, “USE OF CANNABIDIVARIN IN THE TREATMENT OF AUTISM SPECTRUM DISORDER, ASSOCIATED DISORDERS AND SCHIZOPHRENIA” (GW Research Limited, priority 2016, published 2019).

How the values were obtained:
VPA-exposed rats [1] = assay: sociability and preference for social novelty, 3-chamber apparatus, prenatal VPA model; format: in vivo, rat
Experimental: (§1) Pregnant Sprague-Dawley rats (Charles River, Calco, Italy), received a single intraperitoneal injection of 500 mg/kg sodium valproate on the 12.5 day after conception, and control females were injected with physiological saline at the same time. Sodium valproate (Sigma Aldrich, Milan, IT) was dissolved in saline at a concentration of 250 mg/ml.
CBDV was dissolved in ethanol, cremophor and saline (1:1:18). Symptomatic treatment with CBDV at doses of 0.2, 2, 20, and 100 mg/kg/day i.p. was performed starting from PND 34 (early adolescence) till 56 (early adulthood), both in male and female offspring of dams injected with VPA 500 mg/kg (or vehicle) on day 12.5 after conception. At PND 56, a series of behavioural tests was performed in order to assess the effect of chronic CBDV on sociability, social novelty, short-term memory, locomotion and stereotyped/repetitive behaviours.
Sociability and preference for social novelty: These behaviours were investigated in a 3-chamber apparatus which allows for the measurement of social approach and social preference. In brief, animals were placed into a novel arena (80 cm×31.5 cm) composed of three communicating chambers separated by Perspex walls with central openings allowing access to all chambers for 5 min.
Following this acclimatisation period, animals were briefly confined to the central chamber while an unfamiliar rat confined in a small wire cage was placed in one of the outer chambers. An identical empty wire cage was placed in the other chamber. The unfamiliar rat was randomly assigned to either the right or left chamber of the arena. The test animal was then allowed to explore the arena/chambers for a further 5 min. Time spent engaging in investigatory behaviour with the rat was evaluated with the aid of Anymaze program (Ugo Basile, Italy) in order to examine social approach.
To investigate the preference for social novelty, a novel unfamiliar rat was then placed in the empty cage and the test animal was then allowed to explore the arena/chambers for a further 5 min. Time spent engaging in investigatory behaviour with the novel unfamiliar rat was evaluated with the aid of Anymaze program (Ugo Basile, Italy) in order to examine preference for social novelty.

VPA-exposed rats [2] = assay: short-term memory, novel object recognition test, prenatal VPA model; format: in vivo, rat
Experimental: as §1
CBDV was dissolved in ethanol, cremophor and saline (1:1:18). Symptomatic treatment with CBDV at doses of 0.2, 2, 20, and 100 mg/kg/day i.p. was performed starting from PND 34 (early adolescence) till 56 (early adulthood), both in male and female offspring of dams injected with VPA 500 mg/kg (or vehicle) on day 12.5 after conception. […]
Short-term memory: The experimental apparatus used for the object recognition test was an open-field box (43×43×32 cm) made of Plexiglas, placed in a dimly illuminated room. The experiment was performed and analysed as previously described (Zamberletti et al, 2014). […]
Each animal was placed in the arena and allowed to explore two identical previously unseen objects for 5 minutes (familiarization phase). […] During the test phase the time spent exploring the familiar object (Ef) and the new object (En) was videotaped and recorded separately by two observers blind to the treatment groups and the discrimination index was calculated as follows: [(En−Ef)/(En+Ef)]×100.

MeCP2 KO mice = assay: survival of MeCP2 KO and WT mice; format: in vivo, mouse; conditions: for survival rate: vehicle 25%
Experimental: CBDV was administered daily at the dose of 2, 20 and 200 mg/kg i.p. starting from PND 28 and the following signs were scored every other day: hindlimb clasping (indication of motor imbalance), tremor, gait (measure of coordination), breathing, mobility and general condition.
The CBDV was dissolved in ethanol, cremophor and saline (1:1:18).
Starting from PND 28, mice received a daily intraperitoneal injection of CBDV (or vehicle) at the dose of 2, 20 and 200 mg/kg. Animals were then scored every other day to evaluate the effect of CBDV treatment on motor symptoms (hindlimb clasping, gait, mobility) as well as neurological signs and general conditions (breathing abnormalities, tremors and general condition) present in MeCP2 knockout (KO) mice.

Ube3am-/p+ (AS) mice = assay: novel object recognition in Angelman syndrome mice; format: in vivo, mouse; conditions: 20 mg/kg i.p., age 7-8 weeks, vs AS vehicle
Experimental: Heterozygous mice with maternal deficiency of Ube3A (Ube3am−/p+) and wild type (Ube3am+/p+) were purchased from The Jackson Laboratory (Jackson code: B6.12957-Ube3a tm1Alb/J) and maintained in a C57BL/6 background.
Drugs were dissolved in 1:1:18 ethanol:cremophor:0.9% saline, for intraperitoneal (i.p.) administration. Drug treatment was performed daily for 35 days. CBDV was administered at 20 mg/kg.
Novel Object Recognition: The novel object recognition assesses recognition memory in mice. The experiment started with the habituation period, during which mice were allowed to freely explore for 1 hour the apparatus which consists of a rectangular open box (40×30×30 cm width×length×height) made of grey polyvinyl chloride (PVC) illuminated by a dim light. The day after each mouse was allowed to explore two identical objects positioned in the back left and right corners for 5 min (acquisition). A video camera recorded the time spent on exploration of each object. […] The behaviour of mice was analyzed by an observer blind to the treatment. Data are expressed as percentage of recognition index (RI %), which was calculated as the percentage of the time spent exploring the novel object/time spent exploring the novel object+time spent exploring the familiar object×100.

hCB1 = hCB1 (Homo sapiens, UniProt P21554); conditions: cited from earlier work
[3] = target: T1, CB1 cannabinoid receptors (Mus musculus, UniProt P47746); conditions: MF1 mouse brain membranes; extract compared with purified CBDV; cited from earlier work
T1 construct: in both MF1 mouse brain and hCB1-CHO cell membranes; from tissue; host or cells: MF1 mouse brain membranes
T1 sequence (P47746 whole entry): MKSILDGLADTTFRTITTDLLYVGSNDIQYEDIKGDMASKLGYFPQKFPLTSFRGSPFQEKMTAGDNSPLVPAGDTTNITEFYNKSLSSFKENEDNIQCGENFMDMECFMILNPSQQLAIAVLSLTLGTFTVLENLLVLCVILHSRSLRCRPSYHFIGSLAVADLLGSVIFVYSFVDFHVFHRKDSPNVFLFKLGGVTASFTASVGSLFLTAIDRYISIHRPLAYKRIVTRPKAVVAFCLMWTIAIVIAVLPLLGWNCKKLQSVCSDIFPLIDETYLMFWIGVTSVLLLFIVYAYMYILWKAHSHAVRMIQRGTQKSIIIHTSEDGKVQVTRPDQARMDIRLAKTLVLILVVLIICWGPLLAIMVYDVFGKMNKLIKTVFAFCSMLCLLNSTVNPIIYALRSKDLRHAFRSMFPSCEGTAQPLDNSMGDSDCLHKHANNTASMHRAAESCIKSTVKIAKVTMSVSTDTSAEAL

Chain of hCB1 (P21554 whole entry): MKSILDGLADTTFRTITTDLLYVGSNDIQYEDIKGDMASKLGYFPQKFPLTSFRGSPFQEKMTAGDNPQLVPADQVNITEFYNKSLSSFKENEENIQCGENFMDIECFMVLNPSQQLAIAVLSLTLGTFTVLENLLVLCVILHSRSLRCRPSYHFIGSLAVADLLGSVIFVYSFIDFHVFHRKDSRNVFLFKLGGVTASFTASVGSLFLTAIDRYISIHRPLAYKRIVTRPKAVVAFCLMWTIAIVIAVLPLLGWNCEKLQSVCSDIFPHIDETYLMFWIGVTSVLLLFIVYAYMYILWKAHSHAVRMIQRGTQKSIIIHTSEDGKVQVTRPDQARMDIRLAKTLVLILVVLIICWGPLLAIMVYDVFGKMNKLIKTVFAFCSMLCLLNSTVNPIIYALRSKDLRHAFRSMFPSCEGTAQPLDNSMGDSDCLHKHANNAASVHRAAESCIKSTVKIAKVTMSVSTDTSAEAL

For `C=C(C)[C@@H]1CCC(C)=C[C@H]1c1c(O)cc(CCC)cc1O` [CBDV, Cannabidivarin], the “deficit in social preference” value (VPA-exposed rats [1]; 20 mg/kg and 100 mg/kg) was “reversed”, the “restoration of social novelty preference” value (VPA-exposed rats [1]; 20 mg/kg/day i.p. PND 34-56, p<0.001 in males, p<0.01 in females) was “statistically significant effect” and the “reduction of preference index in VPA-CBDV animals compared to controls” value (VPA-exposed rats [1]; VPA alone about 48%) was “about 13%”. The impairment in sociability (VPA-exposed rats [1]; all doses (0.2, 2, 20, 100 mg/kg/day i.p.)) was “significantly reduced”, the “short-term memory deficit (discrimination index)” value (VPA-exposed rats [2]; male and female VPA rats, 2, 20 and 100 mg/kg) was “completely and significantly reversed” and the “recognition memory per se” value (VPA-exposed rats [2]; vehicle-treated (non VPA) rats) was “without affecting”. The survival rate (MeCP2 KO mice; MeCP2 KO mice, 2 mg/kg) was 62.5%, the survival rate (MeCP2 KO mice; MeCP2 KO mice, 20 mg/kg) was 62.5% and the survival rate (MeCP2 KO mice; MeCP2 KO mice, 200 mg/kg) was 75%. The “survival measured at PND 67” value (MeCP2 KO mice; MeCP2 KO mice, all three doses (2, 20, 200 mg/kg)) was “increase survival”, the lethality (MeCP2 KO mice; WT mice treated with CBDV) was “No lethality” and the discrimination index (Ube3am-/p+ (AS) mice) was “significantly increased”. For the same compound, the “affinity for the CB1 receptor” value (hCB1) was “low affinity” and the “affinity for CB1 cannabinoid receptors” value [3] was “neither bound with high enough affinity”.
